# Results taken from patent US20230363382A1, “COMBINATIONS OF TRIAZINONE HERBICIDES WITH SAFENERS” (priority 2020, published 2023).
# Like-named read-outs stand apart in the source and are kept apart here.
# Columns and labels:
# Conditions in all cases: Metribuzin 840 g ai/ha alone, soil spray
# Soybean plants = assay: effect on number of standing Soybean plants; format: in vivo
# Experimental: (§1) Experiments were carried out to evaluate the phytotoxicity, effect on plant height and effect on number of plants standing after treatments with combinations of one or more triazinone herbicides with one or more safeners.
# (§2) Application method was spray and applications were made to soil.
# Soybean crop [1] = test system: Soybean crop
# Experimental: as §1, §2
# Soybean crop [2] = assay: effect on plant height of Soybean crop; format: in vivo
# Experimental: as §1, §2
# Ipomoea hederacea = assay: % weed control in Soybean crop; format: in vivo
# Experimental: as §1, §2
compound,measurement,setting,value
"CSc1nnc(C(C)(C)C)c(=O)n1N [Metribuzin, 4-amino-6-tert-butyl-4,5-dihydro-3-methylthio-1,2,4-triazin-5-one]",Number of plants standing 28 DAA,Soybean plants; Table 1 treatment set,3.0
same,Number of plants standing 28 DAA,Soybean plants; Table 2 treatment set,3.8
same,% Phytotoxicity 7 DAA,Soybean crop [1]; Table 1 treatment set,6.3%
same,% Phytotoxicity 7 DAA,Soybean crop [1]; Table 2 treatment set,7.5%
same,% Phytotoxicity 21 DAA,Soybean crop [1]; Table 1 treatment set,65.0%
same,% Phytotoxicity 21 DAA,Soybean crop [1]; Table 2 treatment set,62.5%
same,% Phytotoxicity 35 DAA,"Soybean crop [1]; 35 DAA, Table 1 treatment set",81.3%
same,Plant height 28 DAA,Soybean crop [2]; Table 1 treatment set,5.80
same,Plant height 28 DAA,Soybean crop [2]; Table 2 treatment set,7.05
same,% Weed Control 7 DAA,Ipomoea hederacea; Table 1 treatment set,60.0%
same,% Weed Control 7 DAA,Ipomoea hederacea; Table 2 treatment set,72.5%
same,% Weed Control 14 DAA,Ipomoea hederacea; Table 1 treatment set,92.5%
same,% Weed Control 14 DAA,Ipomoea hederacea; Table 2 treatment set,96.3%
same,% Weed Control 21 DAA,Ipomoea hederacea; Table 1 treatment set,98.8%
same,% Weed Control 21 DAA,Ipomoea hederacea; Table 2 treatment set,96.8%
same,% Weed Control 28 DAA,Ipomoea hederacea; Table 1 treatment set,95.0%
same,% Weed Control 28 DAA,Ipomoea hederacea; Table 2 treatment set,98.8%
same,% Weed Control 35 DAA,Ipomoea hederacea; Table 1 treatment set,96.3%
same,% Weed Control 35 DAA,Ipomoea hederacea; Table 2 treatment set,98.8%
